Reference: ChEMBL document CHEMBL1144269, “Carbonic anhydrase inhibitors. Inhibition of isozymes I, II, IV, V, and IX with anions isosteric and isoelectronic with sulfate, nitrate, and carbonate” (Bioorg Med Chem Lett, 2005)

Experiments:
[1] = molecular target: Carbonic anhydrase 5A, mitochondrial (Homo sapiens, UniProt P35218)
Carbonic anhydrase 4 = Carbonic anhydrase 4 (Homo sapiens, UniProt P22748)
Carbonic anhydrase 1 = Carbonic anhydrase 1 (Homo sapiens, UniProt P00915)
Carbonic anhydrase 2 = Carbonic anhydrase 2 (Homo sapiens, UniProt P00918)
Carbonic anhydrase 9 = Carbonic anhydrase 9 (Homo sapiens, UniProt Q16790)

Sequence of Carbonic anhydrase 1 (P00915 whole entry): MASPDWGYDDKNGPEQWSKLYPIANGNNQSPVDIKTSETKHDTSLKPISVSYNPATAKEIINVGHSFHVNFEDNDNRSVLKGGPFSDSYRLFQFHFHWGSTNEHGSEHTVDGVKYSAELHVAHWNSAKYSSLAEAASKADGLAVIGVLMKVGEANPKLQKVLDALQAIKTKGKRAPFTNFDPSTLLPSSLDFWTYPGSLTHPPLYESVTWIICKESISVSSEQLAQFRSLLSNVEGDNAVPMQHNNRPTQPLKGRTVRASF
Sequence of Carbonic anhydrase 4 (P22748 whole entry): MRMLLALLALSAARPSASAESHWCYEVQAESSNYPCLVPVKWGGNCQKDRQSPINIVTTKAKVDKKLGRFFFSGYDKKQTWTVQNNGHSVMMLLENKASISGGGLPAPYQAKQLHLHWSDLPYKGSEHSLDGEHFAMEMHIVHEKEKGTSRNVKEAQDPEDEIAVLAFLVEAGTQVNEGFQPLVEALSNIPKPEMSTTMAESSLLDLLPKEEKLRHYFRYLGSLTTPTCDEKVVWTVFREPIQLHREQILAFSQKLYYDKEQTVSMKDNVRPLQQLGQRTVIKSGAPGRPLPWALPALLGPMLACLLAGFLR
Sequence of Carbonic anhydrase 5A, mitochondrial (P35218 whole entry): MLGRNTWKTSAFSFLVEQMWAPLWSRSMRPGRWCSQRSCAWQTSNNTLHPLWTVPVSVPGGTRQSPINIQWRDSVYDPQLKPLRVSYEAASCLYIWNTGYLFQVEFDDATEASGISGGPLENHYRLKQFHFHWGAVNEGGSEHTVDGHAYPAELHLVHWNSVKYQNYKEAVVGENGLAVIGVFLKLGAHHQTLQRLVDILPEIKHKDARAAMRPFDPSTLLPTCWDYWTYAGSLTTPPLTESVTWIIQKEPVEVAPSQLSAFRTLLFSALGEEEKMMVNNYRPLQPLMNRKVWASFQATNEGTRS

## [O-][Br+2]([O-])O [BROMATE]
[1]
  Ki: 11.3 mM
Carbonic anhydrase 4
  Ki: 128 mM
Carbonic anhydrase 1
  Ki: 4.79 mM
Carbonic anhydrase 2
  Ki: 12 mM
Carbonic anhydrase 9
  Ki: 274 mM

## O=S(=O)(O)O [SULFURIC ACID]
[1]
  Ki: 680 mM
Carbonic anhydrase 9
  Ki: 154 mM

## O=[N+]([O-])O [NITRIC ACID]
[1]
  Ki: 16 mM

## O=C(O)O [BICARBONATE]
[1]
  Ki: 95 mM
Carbonic anhydrase 9
  Ki: 0.0086 mM

## NS(=O)(=O)O [SULFAMATE]
[1]
  Ki: 0.12 mM
Carbonic anhydrase 9
  Ki: 0.0092 mM

## [O-][Cl+2]([O-])O [CHLORATE]
[1]
  Ki: 7.12 mM
Carbonic anhydrase 4
  Ki: 64.9 mM
Carbonic anhydrase 1
  Ki: 0.54 mM
Carbonic anhydrase 2
  Ki: 0.85 mM
Carbonic anhydrase 9
  Ki: 147 mM

## [O-][Cl+3]([O-])([O-])O [PERCHLORATE]
[1]
  Ki: 13.6 mM
Carbonic anhydrase 4
  Ki: 767 mM
Carbonic anhydrase 1
  Ki: 0.69 mM
Carbonic anhydrase 9
  Ki: 11.6 mM

## [O-][I+3]([O-])([O-])O [PERIODATE]
[1]
  Ki: 15.7 mM
Carbonic anhydrase 4
  Ki: 226 mM
Carbonic anhydrase 1
  Ki: 14.6 mM
Carbonic anhydrase 2
  Ki: 75.8 mM
Carbonic anhydrase 9
  Ki: 30.3 mM
